In brackets after ≈: the same amount, converted by molar mass. Read-outs that look alike come from different tables or passages of the source. Values belong to the compound of their own block, whether it stands above or below them.
What was measured:
Assay type in all cases: cell-based
E. coli strains = test: MIC against E. coli strains (Table M7); conditions: Escherichia coli, ATCC25922, E. coli ATCC 25922
Procedure, shortened: (§1)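 Broth dilution (CLSI standard) gave the minimum inhibitory concentrations. Resistance genotypes in the panel can be constitutive or inducible.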

S. aureus strains = test: MIC against S. aureus strains (Table M7); conditions: Staphylococcus aureus
Procedure, shortened: as §1

E. faecalis strains = test: MIC against E. faecalis strains (Table M8); conditions: Enterococcus faecalis, E. faecalis 29212
A. baumannii strains = test: MIC against A. baumannii strains (Table M8); conditions: Acinetobacter baumannii, BAA747, A. baumannii BAA747-1
H. influenzae strains = test: MIC against H. influenzae strains (Table M8); conditions: Haemophilus influenzae
Procedure, shortened: as §1

E. coli (MC4100) = test: MIC, E. coli MC4100; conditions: Escherichia coli
From the text: (§2) We have collected MIC data for a total of 50 novel macrolides that this platform has produced against over 21 unique strains of B. subtilis, E. coli, S. aureus, S. pneumoniae, and H. influenzae, including several multidrug-resistant strains, with a special focus on macrolide resistant mechanisms (vide supra). Azithromycin was included as a control macrolide. CLSI standard procedures for broth dilution MIC determination were used. […] These genotypes can be constitutive or inducible. The finding that C4-epi (unnatural) isomers of the “azaketolide” macrolide class have enhanced activities relative to C4 natural isomers is very exciting.

S. pneumoniae strains = test: MIC against S. pneumoniae strains (Tables M7, M8); conditions: Streptococcus pneumoniae
From the text: CLSI standard procedures for broth dilution MIC determination were used. […] These genotypes can be constitutive or inducible.

[1] = tested on: S. aureus (Newman, clinical isolate); test: MIC, S. aureus Newman; conditions: Staphylococcus aureus
From the text: as §2

K. pneumoniae strains = test: MIC against K. pneumoniae strains (Table M8); conditions: Klebsiella pneumoniae, K. pneumoniae 10031
[2] = S. aureus (Neuman, clinical isolate), round 2
[3] = S. aureus (Newman, clinical isolate), round 1

SMILES: CC[C@H]1OC(=O)[C@H](C)C(=O)[C@H](C)[C@@H](O[C@@H]2OC(C)CC(N(C)C)C2O)[C@](C)(OC)CCN[C@H](C)[C@H]2N(CCCCn3cc(-c4cccc(N)c4)nn3)C(=O)O[C@]12C (some centres unmarked) [FSM-30622]
MIC (E. coli strains): > 32 µg/mL | MIC (S. aureus strains; ATCC29213, S. aureus ATCC 29213, read-out: MIC S. aureus (ATCC 29213)): > 32 µg/mL | MIC (S. aureus strains; S. aureus 506, read-out: MIC S. aureus (506)): > 32 µg/mL | MIC (S. aureus strains; S. aureus 1708, read-out: MIC S. aureus (1708)): > 32 µg/mL | MIC (S. aureus strains; USA300, S. aureus USA300, read-out: MIC S. aureus (USA300)): > 32 µg/mL | MIC (E. faecalis strains): > 32 µg/mL | MIC (A. baumannii strains): > 32 µg/mL | MIC (H. influenzae strains; H. influenzae 49247, read-out: MIC H. influenzae (49247)): > 32 µg/mL | MIC (H. influenzae strains; H. influenzae 49766, read-out: MIC H. influenzae (49766)): > 32 µg/mL | MIC (E. coli (MC4100); round 2, read-out: MIC): > 32 µg/mL | MIC (S. pneumoniae strains; S. pneumoniae 160, read-out: MIC S. pneumonae (160)): > 32 µg/mL | MIC (S. pneumoniae strains; S. pneumoniae 1509, read-out: MIC S. pneumoniae (1509)): > 32 µg/mL | MIC (S. pneumoniae strains; S. pneumoniae 1533, read-out: MIC S. pneumoniae (1533)): > 32 µg/mL | MIC (S. pneumoniae strains; S. pneumoniae 1537, read-out: MIC S. pneumoniae (1537)): > 32 µg/mL | MIC (S. pneumoniae strains; S. pneumoniae 49619, read-out: MIC S. pneumoniae (49619)): > 32 µg/mL | MIC [1, 2]: > 32 µg/mL | MIC (K. pneumoniae strains): > 32 µg/mL

SMILES: CC[C@H]1OC(=O)[C@H](C)C(=O)[C@H](C)[C@@H](O[C@@H]2OC(C)CC(N(C)C)C2O)/C(C)=C/CN[C@H](C)[C@H]2N(CCCCn3cc(-c4cccc(N)c4)nn3)C(=O)O[C@]12C (some centres unmarked) [FSM-30624]
MIC (E. coli (MC4100); round 2, read-out: MIC): > 32 µg/mL | MIC [1, 2]: > 32 µg/mL

SMILES: CC[C@H]1OC(=O)[C@H](C)C(=O)[C@H](C)[C@@H](O[C@@H]2OC(C)CC(N(C)C)C2O)/C(C)=C/CN[C@H](C)[C@H]2N(CCCCn3cc(-c4ccccn4)nn3)C(=O)O[C@]12C (some centres unmarked) [FSM-30625]
MIC (E. coli (MC4100); round 2, read-out: MIC): > 32 µg/mL | MIC [1, 2]: > 32 µg/mL

SMILES: CC[C@H]1OC(=O)[C@H](Cc2ccccc2)C(=O)[C@H](C)[C@@H](O[C@@H]2OC(C)CC(N(C)C)C2O)[C@](C)(OC)C[C@@H](C)CN[C@H](C)[C@H]2N(CCCCn3cc(-c4cccc(N)c4)nn3)C(=O)O[C@]12C (some centres unmarked) [FSM-56158]
MIC (E. coli (MC4100); round 2, read-out: MIC): 32 µg/mL (≈ 35.4 µM) | MIC [1, 2]: 8 µg/mL (≈ 8.85 µM)

Results, then the compound that gave them:

MIC (E. coli (MC4100); round 1, read-out: MIC): > 32 µg/mL | MIC [1, 3]: 8 µg/mL (≈ 10 µM)
SMILES: CC[C@H]1OC(=O)[C@H](C)C(=O)[C@H](C)[C@@H](O[C@@H]2OC(C)CC(N(C)C)C2O)[C@](C)(OC)C[C@@H](C)CN[C@H](C)[C@H]2N(CCCn3cc(-c4ccccn4)nn3)C(=O)O[C@]12C (some centres unmarked) [FSM-40348]

MIC (E. coli (MC4100); round 1, read-out: MIC): 16 µg/mL (≈ 19.3 µM) | MIC [1, 3]: 2 µg/mL (≈ 2.42 µM)
SMILES: CC[C@H]1OC(=O)[C@H](C)C(=O)[C@H](C)[C@@H](O[C@@H]2OC(C)CC(N(C)C)C2O)[C@](C)(OC)C[C@@H](C)CN[C@H](C)[C@H]2N(CCCCCn3cc(-c4ccccn4)nn3)C(=O)O[C@]12C (some centres unmarked) [FSM-40350]

MIC (E. coli (MC4100); round 2, read-out: MIC): 32 µg/mL (≈ 40 µM) | MIC [1, 2]: 16 µg/mL (≈ 20 µM)
SMILES: CC[C@H]1OC(=O)CC(=O)[C@H](C)[C@@H](O[C@@H]2OC(C)CC(N(C)C)C2O)[C@](C)(OC)C[C@@H](C)CN[C@H](C)[C@H]2N(CCCCn3cc(-c4ccccn4)nn3)C(=O)O[C@]12C (some centres unmarked) [FSM-56139]
